Reference: ChEMBL document CHEMBL1909046, “DrugMatrix in vitro pharmacology data”
pIC50, pKi: −log10 of the molar value.

Experiments:
[1] = DRUGMATRIX: Leukotriene, BLT (LTB4) radioligand binding (ligand: [3H]LTB4); format: cell membranes, Membrane; details: u-937, Not Active = under 50% inhibition at 10 µM
[2] = DRUGMATRIX: Calcium Channel Type L, Benzothiazepine radioligand binding (ligand: [3H] Diltiazem); format: cell membranes, Rattus norvegicus, Wistar, Brain, Membrane; details: Not Active = under 50% inhibition at 10 µM; for pIC50: read-out: IC50; for pKi: read-out: Ki
[3] = molecular target: T1, 3-hydroxy-3-methylglutaryl-coenzyme A reductase (Homo sapiens, UniProt P04035); design: species or system Escherichia coli;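 also: enzyme inhibition assay of HMG-CoA reductase using radiolabeled [14C]HMG-CoA as substrate; in other assays of this panel Not Active means under 50% inhibition at 10 µM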
T1 sequence (P04035 whole entry): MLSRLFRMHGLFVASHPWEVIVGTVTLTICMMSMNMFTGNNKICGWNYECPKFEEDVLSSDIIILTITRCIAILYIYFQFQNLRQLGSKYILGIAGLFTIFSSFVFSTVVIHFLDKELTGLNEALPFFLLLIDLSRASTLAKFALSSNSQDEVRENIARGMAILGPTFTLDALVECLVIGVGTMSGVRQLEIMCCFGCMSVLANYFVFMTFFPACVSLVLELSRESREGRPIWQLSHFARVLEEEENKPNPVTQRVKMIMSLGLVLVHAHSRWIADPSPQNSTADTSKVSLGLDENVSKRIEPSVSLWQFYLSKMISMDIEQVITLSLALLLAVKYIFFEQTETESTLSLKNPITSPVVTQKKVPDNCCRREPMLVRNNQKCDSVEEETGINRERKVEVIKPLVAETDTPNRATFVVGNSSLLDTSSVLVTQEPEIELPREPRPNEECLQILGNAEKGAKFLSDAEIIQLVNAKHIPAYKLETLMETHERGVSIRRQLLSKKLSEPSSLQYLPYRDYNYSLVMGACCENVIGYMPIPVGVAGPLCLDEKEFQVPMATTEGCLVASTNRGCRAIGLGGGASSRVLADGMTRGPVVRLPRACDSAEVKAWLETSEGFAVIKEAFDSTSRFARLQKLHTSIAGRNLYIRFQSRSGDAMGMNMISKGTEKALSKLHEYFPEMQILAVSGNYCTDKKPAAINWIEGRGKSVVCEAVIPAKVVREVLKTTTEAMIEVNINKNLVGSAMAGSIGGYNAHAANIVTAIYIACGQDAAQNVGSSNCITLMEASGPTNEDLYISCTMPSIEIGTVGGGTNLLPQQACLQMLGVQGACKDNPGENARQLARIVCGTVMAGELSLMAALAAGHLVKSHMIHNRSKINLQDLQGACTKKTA

[4] = molecular target: Cytochrome P450 3A4 (Homo sapiens, UniProt P08684); details: bti-tn-5b1-4; also: in other assays of this panel Not Active means under 50% inhibition at 10 µM
[5] = molecular target: Glycine receptor (Rattus norvegicus, UniProt P22771+P24524+P07727+P20781); format: cell membranes, Wistar, Spinal cord, Membrane; also: in other assays of this panel Not Active means under 50% inhibition at 10 µM
[6] = molecular target: T2, Leukotriene C4 synthase (Cavia porcellus, UniProt A6XA80); format: tissue-based, Lung;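 also: enzyme inhibition assay of leukotriene C4 synthase, using LTA4 as the substrate; in other assays of this panel Not Active means under 50% inhibition at 10 µM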
T2 sequence (A6XA80 whole entry): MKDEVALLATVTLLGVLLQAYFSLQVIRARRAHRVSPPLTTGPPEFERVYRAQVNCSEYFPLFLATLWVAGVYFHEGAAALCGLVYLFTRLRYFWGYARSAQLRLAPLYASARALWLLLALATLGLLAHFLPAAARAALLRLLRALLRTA

[7] = molecular target: T3, Neuropeptide Y receptor type 1 (Homo sapiens, UniProt P25929); format: cell membranes, Membrane; details: sk-n-mc; also: in other assays of this panel Not Active means under 50% inhibition at 10 µM
T3 sequence (P25929 whole entry): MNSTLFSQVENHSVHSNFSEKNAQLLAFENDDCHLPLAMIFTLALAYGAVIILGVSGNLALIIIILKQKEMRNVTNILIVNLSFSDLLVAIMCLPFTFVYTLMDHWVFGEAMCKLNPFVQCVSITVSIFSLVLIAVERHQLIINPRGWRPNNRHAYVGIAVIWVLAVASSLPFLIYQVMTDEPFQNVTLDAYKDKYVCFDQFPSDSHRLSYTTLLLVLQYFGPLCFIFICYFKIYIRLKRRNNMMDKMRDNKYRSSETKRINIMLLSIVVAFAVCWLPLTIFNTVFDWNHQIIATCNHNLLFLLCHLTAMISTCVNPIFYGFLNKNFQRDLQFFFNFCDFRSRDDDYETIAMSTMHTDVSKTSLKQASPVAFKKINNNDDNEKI

[8] = DRUGMATRIX: Tumor Necrosis Factor (TNF), Non-Selective radioligand binding (ligand: [125I] TNF-alpha); format: cell membranes, Membrane; details: u-937; Not Active = under 50% inhibition at 10 µM

Sequence of Cytochrome P450 3A4 (P08684 whole entry): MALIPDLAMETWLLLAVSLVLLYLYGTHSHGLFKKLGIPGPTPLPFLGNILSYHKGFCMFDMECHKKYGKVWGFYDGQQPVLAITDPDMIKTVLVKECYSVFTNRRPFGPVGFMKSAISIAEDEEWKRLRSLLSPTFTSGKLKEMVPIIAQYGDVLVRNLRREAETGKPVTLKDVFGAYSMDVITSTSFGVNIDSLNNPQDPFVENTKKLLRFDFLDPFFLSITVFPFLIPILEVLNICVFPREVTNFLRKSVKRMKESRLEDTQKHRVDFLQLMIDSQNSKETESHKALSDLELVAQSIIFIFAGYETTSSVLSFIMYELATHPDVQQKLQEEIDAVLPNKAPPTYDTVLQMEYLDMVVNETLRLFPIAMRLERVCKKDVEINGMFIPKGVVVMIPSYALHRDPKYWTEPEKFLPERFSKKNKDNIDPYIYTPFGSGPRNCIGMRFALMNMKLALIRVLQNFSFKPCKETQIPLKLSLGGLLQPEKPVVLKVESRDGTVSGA

Row | SMILES | IC50 [1] | Ki [1] | IC50 [2] | Ki [2] | IC50 [3] | IC50 [4] | Ki [4] | IC50 [5] | IC50 [6] | Ki [7] | IC50 [8] | Ki [8] | IC50 [7] | pIC50 [2] | pKi [2] | pIC50 ([1]; read-out: IC50) | pKi ([1]; read-out: Ki)
1 | O=C(O)c1cc(-c2ccc(F)cc2F)ccc1O [DIFLUNISAL] | Not Active | Not Active | Not Active | Not Active | Not Active | Not Active | Not Active | Not Active | Not Active | Not Active | Not Active | Not Active |  |  |  |  | 
2 | CCn1cc(C(=O)O)c(=O)c2cc(F)c(N3CCNC(C)C3)c(F)c21 (stereo unspecified) [LOMEFLOXACIN] | Not Active | Not Active | Not Active | Not Active | Not Active | Not Active | Not Active | Not Active | Not Active |  | Not Active | Not Active | Not Active |  |  |  | 
3 | CN(C)C(=O)Oc1cccc([N+](C)(C)C)c1.[Br-] [NEOSTIGMINE BROMIDE] | Not Active | Not Active | Not Active | Not Active | Not Active | Not Active | Not Active | Not Active | Not Active |  | Not Active | Not Active | Not Active |  |  |  | 
4 | CN1CCCC(CN2c3ccccc3Sc3ccccc32)C1 (stereo unspecified) [MEPAZINE] | Not Active | Not Active | Not Active | Not Active | Not Active | Not Active | Not Active | Not Active | Not Active |  | Not Active | Not Active | Not Active |  |  |  | 
5 | ClC(Cl)(Cl)Cl [CARBON TETRACHLORIDE] | Not Active | Not Active | Not Active | Not Active | Not Active | Not Active | Not Active | Not Active | Not Active |  | Not Active | Not Active | Not Active |  |  |  | 
6 | CCN(CC)CCCC(C)Nc1c2ccc(Cl)cc2nc2ccc(OC)cc12 (stereo unspecified) [QUINACRINE] | Not Active | Not Active |  |  | Not Active | Not Active | Not Active | Not Active | Not Active |  | Not Active | Not Active | Not Active | 5.97 | 6.02 |  | 
7 | CC(C)c1c(C(=O)Nc2ccccc2)c(-c2ccccc2)c(-c2ccc(F)cc2)n1CC[C@@H](O)C[C@@H](O)CC(=O)O [ATORVASTATIN] | Not Active | Not Active | Not Active | Not Active |  |  |  | Not Active | Not Active |  | Not Active | Not Active | Not Active |  |  |  | 
8 | CC(C)C[C@H]1C(=O)N2CCC[C@H]2[C@]2(O)O[C@](NC(=O)[C@@H]3C=C4c5cccc6[nH]cc(c56)C[C@H]4N(C)C3)(C(C)C)C(=O)N12 [ERGOCRYPTINE] | Not Active | Not Active | Not Active | Not Active | Not Active |  |  | Not Active | Not Active |  | Not Active | Not Active | Not Active |  |  |  | 
9 | N[C@@H](Cn1ccc(=O)c(O)c1)C(=O)O [L-MIMOSINE] | Not Active | Not Active | Not Active | Not Active | Not Active |  |  | Not Active | Not Active |  | Not Active | Not Active | Not Active |  |  |  | 
10 | CC(=O)OCC(=O)[C@@]12OC(C)(C)O[C@@H]1C[C@H]1[C@@H]3C[C@H](F)C4=CC(=O)C=C[C@]4(C)[C@@]3(F)[C@@H](O)C[C@@]12C [FLUOCINONIDE] | Not Active | Not Active | Not Active | Not Active | Not Active |  |  | Not Active | Not Active |  | Not Active | Not Active | Not Active |  |  |  | 
11 | CCOc1nc2cccc(C(=O)O)c2n1Cc1ccc(-c2ccccc2-c2nnn[nH]2)cc1 | Not Active | Not Active | Not Active | Not Active | Not Active |  |  | Not Active | Not Active |  | Not Active | Not Active | Not Active |  |  |  | 
12 | N=C(N)c1ccc(OCCCCCOc2ccc(C(=N)N)cc2)cc1 [PENTAMIDINE] |  |  |  |  | Not Active |  |  | Not Active | Not Active |  | Not Active | Not Active | Not Active | 5.66 | 5.71 | 6.62 | 7.21
13 | CC(C)(C(=O)O)c1ccc(C(O)CCCN2CCC(C(O)(c3ccccc3)c3ccccc3)CC2)cc1 (stereo unspecified) [FEXOFENADINE] | Not Active | Not Active | Not Active | Not Active | Not Active |  |  | Not Active | Not Active |  | Not Active | Not Active | Not Active |  |  |  | 
14 | NNCCc1ccccc1 [PHENELZINE] | Not Active | Not Active | Not Active | Not Active | Not Active |  |  | Not Active | Not Active |  | Not Active | Not Active | Not Active |  |  |  | 
15 | Cc1c(O)cccc1C(=O)N[C@@H](CSc1ccccc1)[C@H](O)CN1C[C@H]2CCCC[C@H]2C[C@H]1C(=O)NC(C)(C)C | Not Active | Not Active |  |  | Not Active |  |  | Not Active | Not Active |  | Not Active | Not Active | Not Active | 4.84 | 4.89 |  | 
16 | C[C@H]1COc2c(N3CCN(C)CC3)c(F)cc3c(=O)c(C(=O)O)cn1c23.C[C@H]1COc2c(N3CCN(C)CC3)c(F)cc3c(=O)c(C(=O)O)cn1c23.O [LEVOFLOXACIN] | Not Active | Not Active | Not Active | Not Active | Not Active |  |  | Not Active | Not Active |  | Not Active | Not Active | Not Active |  |  |  | 
17 | C[C@@H]1C/C=C/C=C/C=C/C=C/[C@H](O[C@@H]2O[C@H](C)[C@@H](O)[C@H](N)[C@@H]2O)C[C@@H]2O[C@](O)(C[C@@H](O)C[C@H]3O[C@@H]3/C=C/C(=O)O1)C[C@H](O)[C@H]2C(=O)O [NATAMYCIN] | Not Active | Not Active | Not Active | Not Active | Not Active |  |  | Not Active | Not Active |  | Not Active | Not Active | Not Active |  |  |  | 
18 | COc1cc(OC)c(C(=O)CCCN2CCCC2)c(OC)c1 [BUFLOMEDIL] | Not Active | Not Active | Not Active | Not Active | Not Active |  |  | Not Active | Not Active |  | Not Active | Not Active | Not Active |  |  |  | 
19 | NC12CC3CC(CC(C3)C1)C2 [AMANTADINE] | Not Active | Not Active | Not Active | Not Active | Not Active |  |  | Not Active | Not Active |  | Not Active | Not Active | Not Active |  |  |  | 
